Results on five compounds are retold here after patent publication EP4610262A1, “MACROCYCLIC COMPOUND AS CDK9 INHIBITOR AND USE THEREOF” (Artivila Biopharma, priority 2022, dated 2024).

In one assay the test system is Mia-Paca-2. Description: CDK9 cell activity assay, cell growth inhibition (CellTiter-Glo, 72 hours). Type of assay: cell-based. The settings on record: Homo sapiens. On the procedure:
(§1) In the CDK9 cell activity assay, the cell line MV-4-11 was cultured in IMDM culture medium containing 10% fetal bovine serum (containing 100 U/mL penicillin and 0.1 g/L streptomycin); the cell line HCC1187 was cultured in RPMI-1640 culture medium containing 10% fetal bovine serum (containing 100 U/mL penicillin and 0.1 g/L streptomycin); the cell line Mia Paca-2 was cultured in DMEM containing 10% fetal bovine serum and 2.5% horse serum (containing 100 U/mL penicillin and 0.1 g/L streptomycin); and the cell line A375 was cultured in RPMI-1640 culture medium containing 10% fetal bovine serum (containing 100 U/mL penicillin and 0.1 g/L streptomycin). All cells were cultured in an incubator with saturated humidity at 37°C with 5% CO2.
(§2) When MV-4-11 cells, HCC1187 cells, Mia Paca-2 cells, and A375 cells grew to 80%-90% confluence, they were digested with trypsin, resuspended, counted, and diluted to a certain cell density with complete medium. 100 µL of the cells was plated into each well of a 96-well plate, and the complete medium was used as a background control. The cells were cultured overnight in an incubator with saturated humidity at 37°C with 5% CO2. The compounds were diluted with DMSO to a final concentration of 200×. 3 µL of the stock solution of the above compounds in DMSO was added to 197 µL of complete medium, and 50 µL of the compound diluted in the medium was added to the cells of each well. The cells were cultured in an incubator with saturated humidity at 37°C with 5% CO2 for 72 hours. After 72 hours, the culture plates were placed at room temperature for equilibrium. 40 µL of CellTiter-Glo® reagent was added to each well. The plate was mixed evenly on a shaker for 2 minutes to lyse the cells then incubated at room temperature for 60 minutes to stabilize the chemiluminescent signal, and the chemiluminescence was read using a PE EnVision microplate reader. The inhibition rate on cell growth was calculated as % Inh = (DMSO well - compound treatment well) / (DMSO well - background well) x 100, and fitting was performed using GraphPad Prism 5 to obtain the IC50 values against cell growth.

The subject of a further assay is A375. The description is as above. Type of assay: cell-based. To be noted: Homo sapiens, A-375. As to the method: as §1, §2
In a further assay the test system is HCC1187. Described as above. To be noted: Homo sapiens. Type of assay: cell-based. On the procedure: as §1, §2
A further assay has as its system MV-4-11. The assay is described as above. The settings on record: Homo sapiens, MV4-11. It counts as cell-based. On the procedure:
as §1, §2

A further assay has as its target CDK9 (Homo sapiens, UniProt P50750). Put plainly: Inhibition of CDK9 kinase activity (caliper mobility shift assay). It counts as biochemical. The settings on record: for IC50: 10 concentrations from 10 µM, three-fold dilutions; for inhibition at 0.01 µM: compound at 10 nM. As to the method: (§3) Compounds were tested at a concentration of 10 nM with detection in duplicate wells, or tested at 10 concentrations starting from 10 µM with three-fold serial dilutions, with detection in duplicate wells.
(§4) The inhibitory effect of the compounds on the activity of CDK9 protein kinase was detected by the caliper mobility shift assay method. 250 nL of the compound at 100-fold final concentration was transferred to a target 384-well-plate with a dispenser Echo 550. A kinase solution at 2.5-fold final concentration was prepared using 1× kinase buffer. 10 µL of the kinase solution at 2.5-fold final concentration was added to the compound well and positive control well respectively. 10 µL of 1× kinase buffer was added to the negative control well. The 384-well plate was centrifuged at 1000 rpm for 30 seconds and incubated at room temperature for 10 minutes. A mixed solution of ATP and kinase substrate at 5/3-fold final concentration was prepared with 1× kinase buffer, and to the 384-well plate was added with 15 µL per well of the mixed solution of ATP and substrate at 5/3-fold final concentration to start the reaction. The plate was centrifuged at 1000 rpm for 30 seconds, shaken to mix evenly, and incubated at room temperature for a corresponding time. 30 µL of detection stopping solution was added to terminate the kinase reaction. The 384-well plate was centrifuged at 1000 rpm for 30 seconds and shaken to mix evenly. The conversion rate was read with Caliper EZ Reader. The percent conversion inhibition rate = (% positive control conversion rate mean - % sample conversion rate / (% positive control conversion rate mean - % negative control conversion rate mean). Among them: negative control wells represent the conversion rate readings of kinase buffer background wells; positive control wells represent the conversion rate readings of wells without inhibition by compound. With the log value of concentration as the x-axis and the percentage inhibition rate as the y-axis, a dose-response curve was fitted using the log (inhibitor) vs. response -Variable slope of the analysis software GraphPad Prism 5 to obtain the IC50 value of each compound on enzyme activity. Calculation formula: y=Bottom + (Top-Bottom)/(1+10^((LogIC50-x) × hillslope)), x: logarithm of inhibitor concentration; y: % inhibition rate.

In a further assay the target is JAK2 (Homo sapiens, UniProt O60674). Put plainly: Kinase selectivity, inhibition rate at 10 nM (caliper mobility shift assay). Type of assay: biochemical. To be noted: compound at 10 nM. On the procedure:
as §3, §4
(§5) According to the description of the above experiment on kinase activity inhibition, some compounds were tested for their selective inhibition rate against the kinases of CDK7, CDK9, JAK1, JAK2, JAK3, ITK, RET, TYK2, and LRRK2 at 10 nM. The results are shown in Table 3 below: (Inhibition rate range: A>50%; B: 25-49%; C: <25%): […]

In the next assay the target is LRRK2 (Homo sapiens, UniProt Q5S007). The assay is described as above. Type of assay: biochemical. The settings on record: compound at 10 nM. As to the method:
as §3, §4, §5

Another assay addresses JAK1 (Homo sapiens, UniProt P23458). The description is as above. To be noted: compound at 10 nM. It counts as biochemical. As to the method: as §3, §4, §5
[1] abbreviates: read-out: Inhibition rate on CDK9 kinase activity.
[2] abbreviates: selectivity panel Table 3, read-out: Inhibition rate CDK9.

Where two headings read alike, the source gives them in different places.

Chain of JAK1 (P23458 whole entry): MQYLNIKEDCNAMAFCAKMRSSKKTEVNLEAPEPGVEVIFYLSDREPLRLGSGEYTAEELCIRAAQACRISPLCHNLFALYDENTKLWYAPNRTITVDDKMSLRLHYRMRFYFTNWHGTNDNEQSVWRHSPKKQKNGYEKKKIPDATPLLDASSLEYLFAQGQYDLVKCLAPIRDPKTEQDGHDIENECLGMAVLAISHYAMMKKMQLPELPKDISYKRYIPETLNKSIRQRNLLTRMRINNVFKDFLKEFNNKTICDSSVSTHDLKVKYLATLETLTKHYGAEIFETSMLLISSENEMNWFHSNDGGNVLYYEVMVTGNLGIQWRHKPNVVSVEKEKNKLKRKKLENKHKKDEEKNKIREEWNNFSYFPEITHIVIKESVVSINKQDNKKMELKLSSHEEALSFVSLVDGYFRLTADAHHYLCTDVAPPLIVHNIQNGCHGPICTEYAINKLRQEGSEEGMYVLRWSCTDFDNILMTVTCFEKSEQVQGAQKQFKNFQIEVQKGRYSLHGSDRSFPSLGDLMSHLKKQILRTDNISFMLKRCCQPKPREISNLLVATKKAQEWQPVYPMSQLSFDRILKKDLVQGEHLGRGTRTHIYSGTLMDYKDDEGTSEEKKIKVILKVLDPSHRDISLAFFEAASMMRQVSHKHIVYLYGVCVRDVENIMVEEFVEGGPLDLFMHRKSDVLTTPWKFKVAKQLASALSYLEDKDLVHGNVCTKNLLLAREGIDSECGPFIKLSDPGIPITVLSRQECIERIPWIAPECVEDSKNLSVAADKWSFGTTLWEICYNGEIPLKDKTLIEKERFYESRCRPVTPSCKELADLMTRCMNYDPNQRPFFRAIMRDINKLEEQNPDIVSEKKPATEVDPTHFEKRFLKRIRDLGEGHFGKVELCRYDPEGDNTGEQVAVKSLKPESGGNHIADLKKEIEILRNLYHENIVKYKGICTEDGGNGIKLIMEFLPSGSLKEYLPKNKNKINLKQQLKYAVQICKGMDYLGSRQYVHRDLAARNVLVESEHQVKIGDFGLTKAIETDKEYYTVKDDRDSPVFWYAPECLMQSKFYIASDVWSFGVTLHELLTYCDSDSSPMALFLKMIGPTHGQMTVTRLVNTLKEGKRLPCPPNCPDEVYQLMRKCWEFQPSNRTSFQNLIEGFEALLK
Chain of CDK9 (P50750 whole entry): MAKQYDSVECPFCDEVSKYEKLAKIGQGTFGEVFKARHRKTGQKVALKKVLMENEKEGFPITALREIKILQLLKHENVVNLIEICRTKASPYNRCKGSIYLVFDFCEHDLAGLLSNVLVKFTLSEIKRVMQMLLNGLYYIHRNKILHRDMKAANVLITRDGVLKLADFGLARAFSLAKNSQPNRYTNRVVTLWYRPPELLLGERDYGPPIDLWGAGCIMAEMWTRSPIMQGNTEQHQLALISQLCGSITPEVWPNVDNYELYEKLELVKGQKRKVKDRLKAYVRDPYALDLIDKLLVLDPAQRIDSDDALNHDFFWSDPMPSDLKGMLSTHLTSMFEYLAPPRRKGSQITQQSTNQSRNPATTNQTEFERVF
Chain of CDK9 (O60563 whole entry partner): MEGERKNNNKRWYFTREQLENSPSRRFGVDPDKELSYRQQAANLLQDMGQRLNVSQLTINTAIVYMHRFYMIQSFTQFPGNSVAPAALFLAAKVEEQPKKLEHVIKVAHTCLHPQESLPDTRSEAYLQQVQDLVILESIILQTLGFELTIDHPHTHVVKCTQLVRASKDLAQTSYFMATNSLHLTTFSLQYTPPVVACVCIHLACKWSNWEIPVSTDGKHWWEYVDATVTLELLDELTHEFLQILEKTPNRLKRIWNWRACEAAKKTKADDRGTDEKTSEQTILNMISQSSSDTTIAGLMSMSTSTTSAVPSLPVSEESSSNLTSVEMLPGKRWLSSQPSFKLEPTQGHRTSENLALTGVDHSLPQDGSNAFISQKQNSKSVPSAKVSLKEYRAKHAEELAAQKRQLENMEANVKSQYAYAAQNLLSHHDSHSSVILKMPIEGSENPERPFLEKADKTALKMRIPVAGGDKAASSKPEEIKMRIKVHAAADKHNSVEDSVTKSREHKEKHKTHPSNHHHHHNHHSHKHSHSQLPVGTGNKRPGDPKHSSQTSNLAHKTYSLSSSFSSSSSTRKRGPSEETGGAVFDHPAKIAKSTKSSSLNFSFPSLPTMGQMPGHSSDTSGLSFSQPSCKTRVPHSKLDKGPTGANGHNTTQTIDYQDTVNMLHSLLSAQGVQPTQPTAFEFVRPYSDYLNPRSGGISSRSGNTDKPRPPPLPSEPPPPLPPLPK
Chain of JAK2 (O60674 whole entry): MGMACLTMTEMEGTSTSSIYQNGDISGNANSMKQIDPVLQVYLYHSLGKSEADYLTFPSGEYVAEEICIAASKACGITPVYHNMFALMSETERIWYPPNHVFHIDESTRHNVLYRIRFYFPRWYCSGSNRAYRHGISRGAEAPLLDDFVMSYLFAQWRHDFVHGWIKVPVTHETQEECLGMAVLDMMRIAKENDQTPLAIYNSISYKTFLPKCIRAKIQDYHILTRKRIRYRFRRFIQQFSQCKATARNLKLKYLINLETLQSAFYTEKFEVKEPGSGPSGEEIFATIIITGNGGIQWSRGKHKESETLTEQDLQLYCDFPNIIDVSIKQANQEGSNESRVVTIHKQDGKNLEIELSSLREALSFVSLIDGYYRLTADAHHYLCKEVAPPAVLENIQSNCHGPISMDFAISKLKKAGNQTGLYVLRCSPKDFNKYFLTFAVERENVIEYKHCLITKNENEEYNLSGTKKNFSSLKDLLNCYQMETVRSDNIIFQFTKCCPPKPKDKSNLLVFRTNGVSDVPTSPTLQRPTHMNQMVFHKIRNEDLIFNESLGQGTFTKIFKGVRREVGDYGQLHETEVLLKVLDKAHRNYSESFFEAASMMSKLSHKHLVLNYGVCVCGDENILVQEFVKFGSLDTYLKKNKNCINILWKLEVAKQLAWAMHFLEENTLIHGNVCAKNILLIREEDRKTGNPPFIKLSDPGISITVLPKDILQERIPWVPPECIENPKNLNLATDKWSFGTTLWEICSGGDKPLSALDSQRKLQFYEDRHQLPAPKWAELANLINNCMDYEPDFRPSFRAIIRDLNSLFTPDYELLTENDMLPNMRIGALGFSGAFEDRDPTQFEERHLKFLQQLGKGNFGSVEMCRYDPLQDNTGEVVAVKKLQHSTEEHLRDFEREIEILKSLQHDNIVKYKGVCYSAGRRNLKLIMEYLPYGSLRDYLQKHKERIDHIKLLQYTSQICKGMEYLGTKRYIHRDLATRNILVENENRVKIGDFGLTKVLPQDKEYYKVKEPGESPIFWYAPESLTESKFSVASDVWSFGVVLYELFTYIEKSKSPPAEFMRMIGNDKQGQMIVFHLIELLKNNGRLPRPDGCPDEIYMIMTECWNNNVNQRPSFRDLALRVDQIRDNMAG

On to `CN1CCCCCNc2nc(ncc2Cl)Nc2cccc(c2)C1` [Compound 10, 1^5-chloro-5-methyl-2,5,11-triaza-1(2,4)-pyrimidina-3(1,3)-benzene cycloundecane], for which the IC50 (commonly the concentration needed to halve the response being measured) is 250 to 1000 nM with Mia-Paca-2; 250 to 1000 nM in the assay with A375; 1000 to 5000 nM in the assay on HCC1187; < 250 nM in the assay with MV-4-11; < 100 nM at CDK9. The inhibition – broadly, the relative decrease from the control value, in per cent – at 0.01 µM on CDK9 (setting [1]) was in the range of 25 to 49%.
On to `Cc1ccc2cc1-c1nc(ncc1Cl)Nc1cccc(c1)NC/C=C\CN2` [Compound 12, (Z)-2^5-chloro-1^6-methyl-3,5,10-triaza-2(4,2)-pyrimidina-1,4(1,3)-dibenzocyclodecane-7-ene], for which the half-maximal inhibitory concentration (IC50) in the assay with Mia-Paca-2 is < 250 nM; in the assay with A375, < 250 nM; in the assay with HCC1187, < 250 nM; with MV-4-11 it was < 250 nM; at CDK9, < 100 nM. In addition, the inhibition at 0.01 µM on CDK9 (setting [2]) is > 50%; on CDK9 (setting [1]) it was > 50%; at JAK2 it was < 25%; on LRRK2, < 25%; on JAK1, < 25%.
On to `N#Cc1cnc2nc1NCCCCCNCc1cccc(c1)N2` [Compound 15, 2,5,11-triaza-1(2,4)-pyrimidina-3(1,3)-benzenacycloundecaphan-1^5-carbonitrile], for which the IC50 on CDK9 is < 100 nM. Also, the inhibition at 0.01 µM on CDK9 (setting [2]) is 25 to 49%; on CDK9 (setting [1]) it was 25 to 49%; at JAK2, < 25%; at LRRK2 it was < 25%; at JAK1, < 25%.
Consider `Clc1cnc2nc1OCCCCCNCc1cccc(c1)N2` [Compound 18, 1^5-chloro-11-oxa-2,5-diaza-1(2,4)-pyrimidina-3(1,3)-benzenacyclodecaphane], for which the values for the half-maximal inhibitory concentration (IC50) in the assay on MV-4-11 and at CDK9 were < 250 nM and < 100 nM, respectively. Further, the inhibition at 0.01 µM on CDK9 (setting [2]) was > 50%; at CDK9 (setting [1]), > 50%; on JAK2, < 25%; at JAK1, < 25%.
For the compound `Cc1ccc2cc1-c1nc(ncc1Cl)Nc1cnn(c1)CCNCCN2` [Compound 46, (E)-2^5-chloro-1^6-methyl-4^1H-3,7,10-triaza-2(4,2)-pyrimidina-4(4,1)-pyrazola-1(1,3)-benzenacycl odecaphane], the IC50 is 250 to 1000 nM in the assay on HCC1187, 250 to 1000 nM in the assay with MV-4-11 and < 100 nM at CDK9.
